Like-named read-outs stand apart in the source and are kept apart here.
Tested on: P4 G4
Assay: In vitro translation (IVT) assays
Assay type: biochemical, SARS-CoV-2

Row | Structure (SMILES) | IVT of P4-Mut (P4-Mut (G/A mutations)) | IVT of P4-Mut
1 | NCCOc1cc(C(=O)Nc2cc(OCCN3CCCC3)c3ccccc3n2)nc(C(=O)Nc2cc(OCCN3CCCC3)c3ccccc3n2)c1 [PDP] | not for P4-Mut | 
2 | C[n+]1ccc(-c2c3nc(c(-c4cc[n+](C)cc4)c4ccc([nH]4)c(-c4cc[n+](C)cc4)c4nc(c(-c5cc[n+](C)cc5)c5ccc2[nH]5)C=C4)C=C3)cc1 [TMPyP4, 5,10,15,20-tetrakis-(N-methyl-4-pyridyl)porphine] |  | not for P4-Mut

— paper PMC9447362
